The assay deals with postmenopausal women. The assay is described as follows: Clinical data, summary in words: BMD and bone turnover markers after alendronate followed by raloxifene. Type of assay: in vivo, human. The settings on record: alendronate for one year followed sequentially by raloxifene alone.

Our source for the bone turnover markers and BMD values is patent US20030216358A1, “Method for enhancing bone mineral density gain” (priority 2003, published 2003).

Method: A phase 3, multicenter, double-blind, placebo-controlled, randomized clinical trial was conducted. Objectives of the trial included comparing the effects of 12 months treatment with raloxifene HCl (60 mg/day), alendronate (10 mg/day), or the combination of the two agents together versus placebo on BMD at the lumbar spine and at the hip and also metabolic markers of bone turnover. Additional objectives included comparing the effects of raloxifene 60 mg/day versus placebo during a second year of study on the offset of action of raloxifene or alendronate, as assessed by these same efficacy parameters.
Three hundred thirty-one (331) subjects were randomly assigned to one of four initial treatment groups: placebo, raloxifene 60 mg/day, alendronate 10 mg/day or raloxifene plus alendronate together. After one year of therapy all subjects were re-randomized to receive either placebo or raloxifene 60 mg/day for an additional year of study. All subjects received approximately 500 mg of elemental calcium plus 400-600 I.U. of vitamin D/day throughout the entire study. […] In addition subjects had BMD and biochemical markers of bone turnover (including serum osteocalcin) repeated at six monthly intervals.

As for `O=C(c1ccc(OCCN2CCCCC2)cc1)c1c(-c2ccc(O)cc2)sc2cc(O)ccc12` [raloxifene, 6-hydroxy-2-(4-hydroxyphenyl)-3-[4-(2-piperidinoethoxy)benzoyl]-benzo[b]thiophene], the bone turnover markers result was “either return towards normal or remain suppressed but do not further decrease”. For the setting “compared to alendronate followed by placebo”, the BMD result is given as “further increases of BMD”.
